Experimental data published in patent US20050032873A1, “3-Amino chroman and 2-amino tetralin derivatives” (Wyeth, priority 2003, published 2005).
Where two headings read alike, the source gives them in different places.

What was measured:
[1] = biological target: T1, cloned human 5-HT1A receptors (Homo sapiens, UniProt P08908); experiment: 35S-GTPγS binding assay, 5-HT1A function; type: biochemical; details: for EC50: agonist potency; for IC50: antagonist potency, reversal of 8-OH-DPAT, read-out: 5-HT1A Function GTPγS IC50
T1 construct: expressed in transfected cells
T1 sequence (P08908 1-422): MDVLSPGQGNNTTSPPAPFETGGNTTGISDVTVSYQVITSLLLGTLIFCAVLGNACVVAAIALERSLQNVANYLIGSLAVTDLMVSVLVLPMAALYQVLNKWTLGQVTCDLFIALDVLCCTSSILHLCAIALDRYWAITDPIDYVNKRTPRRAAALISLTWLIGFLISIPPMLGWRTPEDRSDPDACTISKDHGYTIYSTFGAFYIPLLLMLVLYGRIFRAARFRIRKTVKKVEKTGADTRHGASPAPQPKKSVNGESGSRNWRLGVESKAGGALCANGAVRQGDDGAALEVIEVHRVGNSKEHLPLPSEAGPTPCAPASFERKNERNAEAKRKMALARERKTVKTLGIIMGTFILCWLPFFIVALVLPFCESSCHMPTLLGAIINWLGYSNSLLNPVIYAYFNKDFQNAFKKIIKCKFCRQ

serotonin transporter = biological target: T2, serotonin transporter (Rattus norvegicus, UniProt P31652); experiment: 5-HT transporter affinity: displacement of 3H-paroxetine from male rat cortical membranes; type: binding; details: displacement of 3H-paroxetine; male rat cortical membranes; read-out: 5-HT Transporter Affinity Ki
T2 construct: displace ^3H-paroxetine from male rat cortical membranes; from tissue; host or cells: male rat cortical membranes
T2 sequence (P31652 whole entry): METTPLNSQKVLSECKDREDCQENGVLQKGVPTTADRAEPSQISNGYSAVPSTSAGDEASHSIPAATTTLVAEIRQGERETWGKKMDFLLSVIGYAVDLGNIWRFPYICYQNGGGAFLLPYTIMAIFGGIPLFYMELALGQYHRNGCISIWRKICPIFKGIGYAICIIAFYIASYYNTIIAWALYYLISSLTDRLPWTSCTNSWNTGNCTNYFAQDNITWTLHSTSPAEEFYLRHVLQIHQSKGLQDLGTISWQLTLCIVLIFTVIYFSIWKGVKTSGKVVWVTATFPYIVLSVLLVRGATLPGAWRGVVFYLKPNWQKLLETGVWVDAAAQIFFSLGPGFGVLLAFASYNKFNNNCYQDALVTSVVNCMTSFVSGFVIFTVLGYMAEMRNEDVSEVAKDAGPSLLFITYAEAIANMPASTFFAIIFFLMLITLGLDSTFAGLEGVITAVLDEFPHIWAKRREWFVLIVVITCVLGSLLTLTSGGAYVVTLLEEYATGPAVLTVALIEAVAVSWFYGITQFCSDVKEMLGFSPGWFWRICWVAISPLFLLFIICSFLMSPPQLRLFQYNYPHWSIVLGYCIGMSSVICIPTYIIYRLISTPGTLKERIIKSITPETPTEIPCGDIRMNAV

5-HT1A receptor [2] = biological target: T3, 5-HT1A receptor (Homo sapiens, UniProt P08908); experiment: cAMP accumulation assay, 5-HT1A function; type: cell-based; details: for EC50: cells marked EC50 (agonist); for 5-HT1A Function cAMP (Emax) / Emax: in brackets after EC50 or IC50; for IC50: cells marked IC50 (antagonist), read-out: 5-HT1A Function cAMP IC50; for Emax: read-out: 5-HT1A Function cAMP (Emax)
T3 sequence (P08908 1-422): T1 sequence (P08908 1-422)

5-HT1A receptor [3] = biological target: T3, 5-HT1A receptor; experiment: 5-HT1A receptor affinity: displacement of [3H] 8-OH-DPAT; type: binding; set-up: expressed in transfected cells; details: displacement of [3H] 8-OH-DPAT; CHO cells stably transfected with human 5-HT1A receptors; read-out: 5-HT1A Receptor Affinity Ki
[4] = maximum stimulatory effect, in brackets after EC50, read-out: 5-HT1A Function GTPγS (Emax)
[5] = maximum stimulatory effect, in brackets after EC50
[6] = maximum inhibitory effect, in brackets after IC50
[7] = maximum inhibitory effect, in brackets after IC50, read-out: 5-HT1A Function GTPγS (Imax)

Row | Emax [1, 4] [%] | SMILES | EC50 [1] [nM] | Ki (serotonin transporter) [nM] | EC50 (5-HT1A receptor [2]) [nM] | 5-HT1A Function cAMP (Emax) (5-HT1A receptor [2]) [%] | Ki (5-HT1A receptor [3]) [nM] | 5-HT1A Function GTPγS (Emax) [1, 5] [%] | IC50 [1] [nM] | 5-HT1A Function GTPγS (Imax) [1, 6] [%] | IC50 (5-HT1A receptor [2]) [nM] | Emax (5-HT1A receptor [2]) [%] | Emax [1, 7] [%]
1 | 20 | CCN(C(C)CCc1c[nH]c2ccc(F)cc12)C1COc2c(F)ccc(C(N)=O)c2C1 (single isomer, unassigned; (+)) [Compound 16b, (+)-3-{ethyl[3-(5-fluoro-1H-indol-3-yl)-1-methylpropyl]amino}-8-fluorochromane-5-carboxamide] | 807 | 0.95 | 164 | 64.5 | 128 | – | – | – | – | – | –
2 | 69 | CCCN(CCCc1c[nH]c2ccc(F)cc12)C1CCc2c(F)ccc(OC)c2C1 (single isomer, unassigned; (+)) [Compound 51a, (+)-5-fluoro-N-[3-(5-fluoro-1H-indol-3-yl)propyl]-8-methoxy-N-propyl-1,2,3,4-tetrahydro-2-naphthalenamine] | 13 | 1.15 | 16.5 | 100 | 1.71 | – | – | – | – | – | –
3 | – | NC(=O)c1cccc2c1CC(N(CCCc1c[nH]c3ccc(F)cc13)C1CCC1)CO2 (single isomer, unassigned; (+)) [Compound 134b, (+)-3-{cyclobutyl[3-(5-fluoro-1H-indol-3-yl)propyl]amino}chromane-5-carboxamide] | 581 | 7.2 | 44.5 | 66.5 | 29.6 | 71 | – | – | – | – | –
4 | – | NC(=O)c1ccc(F)c2c1CC(N(CC1CCc3[nH]c4ccc(F)cc4c3C1)C1CCC1)CO2 (single isomer, unassigned; (+)) [Compound 174b, (+)-3-{cyclobutyl[(6-fluoro-2,3,4,9-tetrahydro-1H-carbazol-3-yl)methyl]amino}-8-fluorochromane-5-carboxamide] | – | 192 | – | – | 0.85 | – | 1440 | 67 | 64.1 | 0 | –
5 | 55 | NC(=O)c1ccc(F)c2c1CC(N(CC1CCc3[nH]c4ccc(F)cc4c3C1)C1CCC1)CO2 (single isomer, unassigned; (+)) [Compound 174c, (+)-3-{cyclobutyl[(6-fluoro-2,3,4,9-tetrahydro-1H-carbazol-3-yl)methyl]amino}-8-fluorochromane-5-carboxamide] | 978 | 1100 | – | 0 | 185 | – | – | – | 607 | – | –
6 | – | NC(=O)c1ccc(F)c2c1C[C@@H](NCC1CCc3[nH]c4ccc(F)cc4c3C1)CO2 (single isomer, unassigned; (+)) [Compound 175b] | – | 47.6 | – | 0 | 31.4 | – | 174 | 55 | 4130 | – | –
7 | – | CCN(CC1CCc2[nH]c3ccc(F)cc3c2C1)[C@H]1COc2c(F)ccc(C(N)=O)c2C1 (single isomer, unassigned; (+)) [Compound 176b] | – | 165 | – | 0 | 24.6 | – | 827 | 88 | 669 | – | –
8 | – | CCCN(CC1CCc2[nH]c3ccc(F)cc3c2C1)[C@H]1COc2c(F)ccc(C(N)=O)c2C1 (single isomer, unassigned; (+)) [Compound 177b] | – | 181 | – | 0 | 7.34 | – | 181 | 74 | 36.2 | – | –
9 | – | NC(=O)c1ccc(F)c2c1C[C@@H](N(CC1CC1)CC1CCc3[nH]c4ccc(F)cc4c3C1)CO2 (single isomer, unassigned; (+)) [Compound 178b] | – | 116 | – | 0 | 9.48 | – | 611 | 99 | 224 | – | –
10 | – | CCCN(CCCc1c[nH]c2ccc(F)cc12)C1COc2c(F)ccc(C(N)=O)c2C1 (single isomer, unassigned; (-)) [Compound 2a, (−)-8-fluoro-3-[[3-(5-fluoro-1H-indol-3-yl)propyl](propyl)amino]-3,4-dihydro-2H-chromene-5-carboxamide] | – | 8.5 | 18.5 | – | 1.48 | – | 405 | – | – | 77.5 | 77.4
11 | – | CCN(CCCc1c[nH]c2ccc(F)cc12)C1COc2c(F)ccc(C(N)=O)c2C1 (single isomer, unassigned; (-)) [Compound 3a, (−)-3-{ethyl[3-(5-fluoro-1H-indol-3-yl)propyl]amino}-8-fluoro-3,4-dihydro-2H-chromene-5-carboxamide] | – | 5 | – | 0 | 35.1 | – | 1300 | 79 | 135 | – | –
12 | – | NC(=O)c1ccc(F)c2c1CC(N(CCCc1c[nH]c3c(F)cc(F)cc13)C1CCC1)CO2 (single isomer, unassigned; (-)) [Compound 9a, (−)-3-{cyclobutyl[3-(5,7-difluoro-1H-indol-3-yl)propyl]amino}-8-fluorochromane-5-carboxamide] | – | 3.34 | – | – | 1.73 | – | 207 | 100 | 61.1 | 0 | –
13 | – | CCCN(C(C)CCCc1c[nH]c2ccc(F)cc12)C1COc2c(F)ccc(C(N)=O)c2C1 (single isomer, unassigned; (-)) [Compound 14b, (−)-8-fluoro-3-[[4-(5-fluoro-1H-indol-3-yl)-1-methylbutyl](propyl)amino]chromane-5-carboxamide] | – | 9.5 | – | 0 | 1.88 | – | 477 | 100 | 110 | – | –
14 | – | CC(CCc1c[nH]c2ccc(F)cc12)N(CC1CC1)C1COc2c(F)ccc(C(N)=O)c2C1 (single isomer, unassigned; (-)) [Compound 15a, (−)-3-{(cyclopropylmethyl)[3-(5-fluoro-1H-indol-3-yl)-1-methylpropyl]amino}-8-fluorochromane-5-carboxamide] | – | 10.2 | – | 0 | 1.88 | – | 333 | – | 72.7 | – | 100
15 | – | CCN(C(C)CCc1c[nH]c2ccc(F)cc12)C1COc2c(F)ccc(C(N)=O)c2C1 (single isomer, unassigned; (-)) [Compound 16a, (−)-3-{ethyl[3-(5-fluoro-1H-indol-3-yl)-1-methylpropyl]amino}-8-fluorochromane-5-carboxamide] | – | 0.9 | – | 0 | 37.3 | – | 3000 | – | 187 | – | 100
16 | – | CCCN(CCCc1c[nH]c2ccc(F)cc12)C1CCc2c(F)ccc(OC)c2C1 (single isomer, unassigned; (-)) [Compound 51b, (−)-5-fluoro-N-[3-(5-fluoro-1H-indol-3-yl)propyl]-8-methoxy-N-propyl-1,2,3,4-tetrahydro-2-naphthalenamine] | – | 1.12 | – | 0 | 14.2 | – | 48 | – | 50 | – | 46
17 | – | NC(=O)c1cccc2c1CC(N(CCCc1c[nH]c3ccc(F)cc13)C1CCC1)CO2 (single isomer, unassigned; (-)) [Compound 134a, (−)-3-{cyclobutyl[3-(5-fluoro-1H-indol-3-yl)propyl]amino}chromane-5-carboxamide] | 66 | 2.75 | 3.87 | 89 | 0.66 | 30 | 191 | – | – | – | 60
18 | – | NC(=O)c1ccc(F)c2c1CC(N(CC1CCc3[nH]c4ccc(F)cc4c3C1)C1CCC1)CO2 (single isomer, unassigned; (-)) [Compound 174d, (−)-3-{cyclobutyl[(6-fluoro-2,3,4,9-tetrahydro-1H-carbazol-3-yl)methyl]amino}-8-fluorochromane-5-carboxamide] | – | 322 | – | 0 | 73.3 | – | 4750 | 100 | 304 | – | –
19 | – | NC(=O)c1ccc(F)c2c1C[C@@H](NCC1CCc3[nH]c4ccc(F)cc4c3C1)CO2 (single isomer, unassigned; (-)) [Compound 175a] | – | 20.9 | – | – | 38 | – | 429 | 100 | 1480 | 0 | –

Row | SMILES | Emax [1, 4] [%] | EC50 [1] [nM] | Ki (serotonin transporter) [nM] | EC50 (5-HT1A receptor [2]) [nM] | 5-HT1A Function cAMP (Emax) (5-HT1A receptor [2]) [%] | Ki (5-HT1A receptor [3]) [nM] | 5-HT1A Function GTPγS (Emax) [1, 5] [%] | IC50 [1] [nM] | 5-HT1A Function GTPγS (Imax) [1, 6] [%] | IC50 (5-HT1A receptor [2]) [nM] | Emax (5-HT1A receptor [2]) [%] | Emax [1, 7] [%]
20 | CC(CCc1c[nH]c2ccc(F)cc12)N(CC1CC1)C1COc2c(F)ccc(C(N)=O)c2C1 (single isomer, unassigned; (+)) [Compound 15b, (+)-3-{(cyclopropylmethyl)[3-(5-fluoro-1H-indol-3-yl)-1-methylpropyl]amino}-8-fluorochromane-5-carboxamide] | 32 | 108 | 46.7 | 32.4 | 73 | 31.7 | – | – | – | – | – | –
